The source of these data is patent US8232275B2, “2,2-bis-(hydroxymethyl)cyclopropylidenemethyl-purines and -pyrimidines as antiviral agents” (Wayne State University, priority 2002, dated 2012).

Marks after values point to notes of the source that are not given here.

The term IC50 denotes the midpoint of a concentration-inhibition curve. Broadly, the melting point is the temperature of the solid-liquid transition.

One series concerns HSV-1. Put plainly: HSV-1 ELISA in BSC-1 cells. To be noted: Human alphaherpesvirus 1. Type of series: cell-based, herpes simplex virus type 1 (HSV-1). The method, then:
(§1) Cells and viruses. The routine growth and passage of KB cells was performed in monolayer cultures using minimal essential medium (MEM) with either Hanks salts [MEM(H)] or Earle salts [MEM(E)] supplemented with 10% calf serum. The sodium bicarbonate concentration was varied to meet the buffering capacity required. Cultures of diploid human foreskin fibroblasts (HFF) or MRC-5 cells were grown in medium consisting of MEM(E) with 10% fetal bovine serum. Cells were passaged at 1:2 to 1:10 dilutions according to conventional procedures by using 0.05% trypsin plus 0.02% EDTA in a HEPES buffered salt solution (HBS) (Shipman, C., Jr., Proc. Soc. Exp. Biol. 130:305-310 (1969)) as described previously. Turk, S. R., et al., Antimicrob. Agents Chemother. 31:544-550 (1987). HFF and MRC-5 cells were passaged only at 1:2 dilutions. CEM cells were maintained in suspension culture as detailed previously. Kucera, L. S., et al., AIDS Res. Human Retroviruses 9:307-314 (1993).
(§2) Virological procedures. Stock HCMV was prepared by infecting HFF cells at a multiplicity of infection (m.o.i.) of <0.01 plaque-forming units (p.f.u.) per cell. Cell growth medium was changed every four days until cytopathology was evident in all cells (approximately 21 days). Supernatant fluids were retained as the virus stock. High titer HSV-1 stocks were prepared by infecting KB cells at an m.o.i. of <0.1 as detailed previously. Turk, S. R., et al., Antimicrob. Agents Chemother. 31:544-550 (1987). Virus titers were determined using monolayer cultures of HFF cells for HCMV and monolayer cultures of BSC-1 cells for HSV-1 as described earlier. Prichard, M. N. et al., J. Virol. Methods 28:101-106 (1990). Briefly, HFF or BSC-1 cells were planted as described above in 96-well cluster dishes and incubated overnight at 37° C. in a humidified 3% CO2-97% air atmosphere. The next day cultures were inoculated with HCMV or HSV-1 and serially diluted 1:3 across the remaining eleven columns of the 96-well plate. Cultures were incubated at 37° C. for 2 hr to permit virus adsorption and then virus inoculum was replaced with 0.2 mL of fresh medium. Cultures were incubated for seven days for HCMV, two or three days for HSV-1, medium was removed, and the cell sheets were stained with 0.1% crystal violet in 20% methanol. Plaques were enumerated under 20-fold magnification in wells having the dilution which gave 5 to 20 plaques per well. Virus titers were calculated according to the following formula: Titer (p.f.u./mL)=number of plaques×5×3^n; where n represents the nth dilution of the virus used to infect the well in which plaques were enumerated.
Assays for Antiviral Activity. (b) HSV-1. An enzyme-linked immunosorbent assay (ELISA) was employed to detect HSV-1. 96-well cluster dishes were planted with BSC-1 cells at 10,000 cells per well, in a total volume of 200 μL per well of MEM(E) plus 10% calf serum. After overnight incubation at 37° C., drug and HSV-1 was added at the rate of 100 PFU/well. ELISA plates were blocked with 200 μL per well of 10% calf serum and 0.05% tween in HBS. After incubation for 30 minutes, the blocking agent was rinsed two times with HBS-T. A 1:400 dilution of AP conjugated rabbit anti-HSV-1 antibody in HBS-F was added. Plates were sealed with adhesive sheet, and incubated on rocker for one hour at 37° C. Plates were developed in the dark with […] per well of substrate solution containing p-nitrophenyl phosphate. Plates were read at 492 nm. Drug effects were calculated as a percentage of the reduction in virus in the presence of each drug concentration compared to the titer obtained in the absence of drug. Acyclovir was used as a positive control in all experiments.
Data Analysis. Dose-response relationships were constructed by linearly regressing the percent inhibition of parameters derived in the preceding sections against log drug concentrations. Fifty-percent inhibitory (IC50) concentrations were calculated from the regression lines. […]
A general note: ELISA stands for enzyme-linked immunosorbent assay.

The next series relates to KB cells. Put plainly: Cytotoxicity in KB cells, growth during two population doublings (crystal violet). Type of series: cell-based. The method, then: (§3) Cytotoxicity assays. Two different assays were used to explore cytotoxicity of selected compounds as we have detailed previously. (i) Cytotoxicity produced in stationary HFF cells was determined by microscopic inspection of cells used in plaque assays which were not affected by the virus. Turk, S. R., et al., Antimicrob. Agents Chemother. 31:544-550 (1987). (ii) The effect of compounds during two population doublings of KB cells was determined by crystal violet staining and spectrophotometric quantitation of dye eluted from stained cells. Prichard, M. N., et al., Antimicrob. Agents Chemother. 35:1060-1065 (1991). Data Analysis. Dose-response relationships were constructed by linearly regressing the percent inhibition of parameters derived in the preceding sections against log drug concentrations. Fifty-percent inhibitory (IC50) concentrations were calculated from the regression lines. Samples containing positive controls (acyclovir for HSV-1, ganciclovir for HCMV, and 2-acetylpyridine thiosemicarbazone for cytotoxicity) were used in all assays. Results from sets of assays were rejected if inhibition by the positive control deviated from its mean response by >±1.5 standard deviations.

For a further series, the system named is HCMV. The experiment in a line: HCMV plaque reduction assay in HFF cells. It is filed as cell-based, human cytomegalovirus (HCMV). To be noted: Human betaherpesvirus 5, HFF host cells. The protocol:
as §1, §2
Assays for Antiviral Activity. (a) HCMV. The effect of compounds on the replication of HCMV has been measured using a plaque reduction assay. HFF cells in 24-well cluster dishes were infected with approximately 100 p.f.u. of HCMV per cm^2 cell sheet using the procedures detailed above. Following virus adsorption, compounds dissolved in growth medium were added to duplicate wells in three to six selected concentrations. Following incubation at 37° C. for 7 to 10 days, cell sheets were fixed, stained with crystal violet and microscopic plaques enumerated as described above. Drug effects were calculated as a percentage of reduction in number of plaques in the presence of each drug concentration compared to the number observed in the absence of drug. Ganciclovir (DHPG) was used as a positive control in all experiments.
Data Analysis. Dose-response relationships were constructed by linearly regressing the percent inhibition of parameters derived in the preceding sections against log drug concentrations. Fifty-percent inhibitory (IC50) concentrations were calculated from the regression lines. Samples containing positive controls (acyclovir for HSV-1, ganciclovir for HCMV, and 2-acetylpyridine thiosemicarbazone for cytotoxicity) were used in all assays. […]

A short description of series [1]: Cytotoxicity in stationary HFF cells, microscopic (visual) inspection. It is filed as cell-based. Particulars: human, stationary HFF cells (uninfected cells of the plaque assays), read-out: IC50 (μM) HFF (visual). The protocol: as §3

The compound `Nc1nc2c(ncn2COCCO)c(=O)[nH]1` [Acyclovir, reference compound] gave an IC50 in the series on HSV-1 of 0.15 µM. Further, in the series on KB cells (cytotoxicity, KB cell growth), the “IC50 (μM) KB (growth)” value is >100 ^b μM.

Consider `COc1nc(N)nc2c1ncn2/C=C1/CC1(CO)CO` [Compound 1g, (Z)-2-amino-6-methoxy-9-{[2,2-bis-(hydroxymethyl)cyclopropylidene]-methyl}purine], for which the melting point lay in the range of 188 to 189 °C. The same compound registered a concentration for half-maximal inhibition (IC50) with HCMV of 3.5 µM. Further, the IC50 in the series with HSV-1 was > 100 µM. Moreover, the CC50 in series [1] is > 100 µM. Besides, the “IC50 (μM) KB (growth)” value in the series on KB cells (human) was >100 µM.

As for `Nc1ncnc2c1ncn2/C=C1/CC1(CO)CO` [Compound 1a, (Z)-9-{(2,2-Bis-(hydroxymethyl)cyclopropylidene)methyl}-adenine], the IC50 in the series with HCMV was 3.6 µM; with HSV-1, 50 µM. Further, the CC50 in series [1] was > 100 µM. In addition, in the series with KB cells (human), the “IC50 (μM) KB (growth)” value was >100 µM.

As to `Nc1nc(NC2CC2)c2ncn(/C=C3\CC3(CO)CO)c2n1` [Compound 2h, (E)-2-Amino-6-cyclopropylamino-9-{[2,2-bis-(hydroxymethyl)-cyclopropylidene]methyl}purine], the melting point fell in the range of 164 to 165 °C.

As for `Nc1nc2c(ncn2/C=C2/CC2(CO)CO)c(=O)[nH]1` [Compound 1c, (Z)-9-{[2,2-Bis-(hydroxymethyl)cyclopropylidene]methyl}-guanine], the figures for the IC50 in the series with HCMV and in the series with HSV-1 were 0.46 µM and > 100 µM, respectively. Besides, the CC50 in series [1] was > 100 µM. Besides, the “IC50 (μM) KB (growth)” value in the series on KB cells (human) was >100 µM.

`Nc1ccn(/C=C2\CC2(CO)CO)c(=O)n1` [Compound 2e, (E)-1-{[2,2-bis-(hydroxymethyl)cyclopropylidene]methyl}cytosine]: the melting point was in the range of 249 to 251 °C.

`Nc1nc(N)c2ncn(/C=C3\CC3(CO)CO)c2n1` [Compound 2o, (E)-2,6-Diamino-9-{[2,2-bis-(hydroxymethyl)cyclopropylidene]-methyl}purine] gave a melting point of 219 to 220 °C.

For the compound `Cc1cn(/C=C2/CC2(CO)CO)c(=O)[nH]c1=O` [Compound 1f, (Z)-1-{[2,2-Bis-(hydroxymethyl)cyclopropylidene]methyl}-thymine], the IC50 with HCMV is > 100 µM; in the series with HSV-1, 10 µM. In addition, the CC50 in series [1] is > 100 µM. Besides, the “IC50 (μM) KB (growth)” value with KB cells (human) is >100 µM.

As for `Nc1nc2c(ncn2/C=C2\CC2(CO)CO)c(=O)[nH]1` [Compound 2c, (E)-9-{[2,2-Bis-(hydroxymethyl)cyclopropylidene]methyl}-guanine], the figures for the IC50 with HCMV and with HSV-1 were > 100 µM and 39 µM, respectively. The CC50 in series [1] is > 100 µM. For the same compound, in the series with KB cells (human), the “IC50 (μM) KB (growth)” value was >100 µM.

The compound `Nc1ccn(/C=C2/CC2(CO)CO)c(=O)n1` [Compound 1e, (Z)-1-{[2,2-Bis-(hydroxymethyl)cyclopropylidene]methyl}-cytosine] gave a melting point of 250 to 253 °C. The compound further registered a concentration for half-maximal inhibition (IC50) in the series on HCMV of 32 µM. For the same compound, the IC50 in the series on HSV-1 is > 100 µM. For the same compound, in series [1], the CC50 is > 100 µM. Also, in the series on KB cells (human), the “IC50 (μM) KB (growth)” value was >100 µM.

Turning to `Nc1nc(N)c2ncn(/C=C3/CC3(CO)CO)c2n1` [Compound 1o, (Z)-2,6-Diamino-9-{[2,2-bis-(hydroxymethyl)cyclopropylidene]-methyl}-purine], the melting point lay within 249 to 250 °C. The compound further gave an IC50 with HCMV of 15 µM. In the series on HSV-1, the IC50 was > 100 µM. The CC50 in series [1] was > 100 µM. Besides, in the series with KB cells (human), the “IC50 (μM) KB (growth)” value was >100 µM.

The compound `Nc1nc(NC2CC2)c2ncn(/C=C3/CC3(CO)CO)c2n1` [Compound 1h, (Z)-2-Amino-6-cyclopropylamino-9-{[2,2-bis-(hydroxymethyl)-cyclopropylidene]methyl}purine] returned a melting point of 195 to 196 °C.

Regarding `Nc1nc(O)c2ncn(COC(CO)CO)c2n1` [Ganciclovir, reference compound], in the series on HCMV, the 50% inhibitory concentration (IC50) is 4.1 µM. Moreover, in series [1], the CC50 was > 100 µM.

Consider `COc1nc(N)nc2c1ncn2/C=C1\CC1(CO)CO` [Compound 2g, (E)-2-amino-6-methoxy-9-{[2,2-bis-(hydroxymethyl)cyclopropylidene]-methyl}purine], for which the melting point is 179 to 180 °C.
